Results as given in patent US20250325552A1, “SUBSTITUTED THIADIAZOLYL DERIVATIVES AS DNA POLYMERASE THETA INHIBITORS” (IDEAYA Biosciences, Inc., priority 2020, published 2025).
Like-named read-outs stand apart in the source and are kept apart here.

Molecular target: Polθ theta (1-899) (hPolQ) (Homo sapiens (Human), UniProt O75417)
Experiment: Biological Assay 1: Polθ ATPase activity, NADH oxidation-coupled enzymatic assay (10 nM enzyme, 30 min)
Type: biochemical
Settings: Polθ (1-899) 10 nM, 100 μM ATP, 300 nM dT50 ssDNA, read-out: ATPase NADH coupling:Standard Screening:hPolQ IC50
Procedure, shortened: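 ATP turnover was coupled to NADH oxidation and followed at 340 nm every minute for 30 min. Enzyme (residues 1-899, 10 nM) sat with compound for 15 min at room temperature before an equal-volume addition of 100 μM ATP plus 300 nM dT50 ssDNA. Progress-curve slopes from 10-point dilutions were fitted by a four-parameter model.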

Sequence of Polθ theta (1-899) (hPolQ) (O75417 1-899): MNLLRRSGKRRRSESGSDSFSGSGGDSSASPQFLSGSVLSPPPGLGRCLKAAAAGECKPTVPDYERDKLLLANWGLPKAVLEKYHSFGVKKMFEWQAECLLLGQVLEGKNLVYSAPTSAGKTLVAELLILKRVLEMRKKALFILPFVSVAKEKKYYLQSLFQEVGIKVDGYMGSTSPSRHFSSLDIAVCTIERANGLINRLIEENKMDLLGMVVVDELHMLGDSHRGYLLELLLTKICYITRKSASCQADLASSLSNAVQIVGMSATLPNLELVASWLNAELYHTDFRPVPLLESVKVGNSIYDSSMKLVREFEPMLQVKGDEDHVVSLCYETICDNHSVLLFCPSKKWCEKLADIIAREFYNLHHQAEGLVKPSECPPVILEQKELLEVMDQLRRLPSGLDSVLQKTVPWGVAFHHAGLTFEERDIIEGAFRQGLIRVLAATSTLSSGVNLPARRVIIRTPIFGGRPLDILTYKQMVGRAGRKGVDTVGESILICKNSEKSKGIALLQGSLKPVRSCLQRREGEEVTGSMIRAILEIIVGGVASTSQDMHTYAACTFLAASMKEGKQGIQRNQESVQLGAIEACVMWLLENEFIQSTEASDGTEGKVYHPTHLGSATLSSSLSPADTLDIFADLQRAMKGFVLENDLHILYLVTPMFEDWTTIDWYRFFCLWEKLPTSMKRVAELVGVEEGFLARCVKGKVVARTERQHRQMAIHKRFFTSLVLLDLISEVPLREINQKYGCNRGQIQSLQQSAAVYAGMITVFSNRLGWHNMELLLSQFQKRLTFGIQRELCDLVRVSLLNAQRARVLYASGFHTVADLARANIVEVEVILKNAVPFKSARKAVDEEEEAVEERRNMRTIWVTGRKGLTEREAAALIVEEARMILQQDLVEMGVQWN

Structure (SMILES) | IC50 (Examples 1 to 268) [nM] | IC50 (value printed as bound) [nM]
COc1cnc(Cl)cc1-c1cc(C)ncc1C(=O)Nc1nnc(OC[C@@]2(C)CCOC2)s1 (single isomer, unassigned) [Example 161] | ≤ 200 | 
Cc1cc(-c2c(F)cccc2OC(F)F)c(C(=O)Nc2nnc(OCc3ccc([C@H](C)O)cn3)s2)cn1 [Example 56, 4-(2-(difluoromethoxy)-6-fluorophenyl)-N-(5-((5-((S)-1-hydroxyethyl)pyridin-2-yl)methoxy)-1,3,4-thiadiazol-2-yl)-6-methylnicotinamide] | ≤ 200 | 
COc1cnc(C)cc1-c1cc(C)ncc1C(=O)Nc1nnc(OCC23CC(O)(C2)C3)s1 [Example 98, N-(5-((3-hydroxybicyclo(1.1.1)pentan-1-yl)methoxy)-1,3,4-thiadiazol-2-yl)-5′-methoxy-2′,6-dimethyl-(4,4′-bipyridine)-3-carboxamide] | ≤ 200 | 
COc1cnc(Cl)cc1-c1cc(C)ncc1C(=O)Nc1nnc(OC[C@@H]2C[C@@H]2F)s1 [Example 202, 2′-chloro-N-(5-(((1S,2S)-2-fluorocyclopropyl)methoxy)-1,3,4-thiadiazol-2-yl)-5′-methoxy-6-methyl-(4,4′-bipyridine)-3-carboxamide] | ≤ 200 | 
Cc1cc(-c2cc(Cl)ncc2OC(F)F)c(C(=O)Nc2nnc(OC[C@H]3CCOC3)s2)cn1 (single isomer, unassigned) [Example 257] | ≤ 200 | 
COc1cnc(Cl)cc1-c1cc(C)ncc1C(=O)Nc1nnc(OCC23COC(C2)C3)s1 [Example 229, N-(5-((2-oxabicyclo(2.1.1)hexan-4-yl)methoxy)-1,3,4-thiadiazol-2-yl)-2′-chloro-5′-methoxy-6-methyl-(4,4′-bipyridine)-3-carboxamide] | ≤ 200 | 
COc1cccc(F)c1-c1cc(C)ncc1C(=O)Nc1nnc(OCc2cnc([C@H](C)O)cn2)s1 [Example 110, 4-(2-fluoro-6-methoxyphenyl)-N-(5-((5-((S)-1-hydroxyethyl)pyrazin-2-yl)methoxy)-1,3,4-thiadiazol-2-yl)-6-methylnicotinamide] | ≤ 200 | 
COc1cnc(Cl)cc1-c1cc(C)ncc1C(=O)Nc1nnc(OCc2ccc(C(C)(C)O)cn2)s1 [Example 58, 2′-chloro-N-(5-((5-(2-hydroxypropan-2-yl)pyridin-2-yl)methoxy)-1,3,4-thiadiazol-2-yl)-5′-methoxy-6-methyl-[4,4′-bipyridine]-3-carboxamide] | ≤ 200 | 
COc1cccc(F)c1-c1cc(C)ncc1C(=O)Nc1nnc(OCC23CCC(O)(CC2)CC3)s1 [Example 66, 4-(2-fluoro-6-methoxyphenyl)-N-(5-((4-hydroxybicyclo(2.2.2)octan-1-yl)methoxy)-1,3,4-thiadiazol-2-yl)-6-methylnicotinamide] | ≤ 200 | 
COc1ccc(C)cc1-c1cc(C)ncc1C(=O)Nc1nnc(OCc2ccc(Cl)cn2)s1 [Example 44, N-(5-((5-chloropyridin-2-yl)methoxy)-1,3,4-thiadiazol-2-yl)-4-(2-methoxy-5-methylphenyl)-6-methylpyridine-3-carboxamide] | ≤ 200 | 
COc1ccccc1-c1cnccc1C(=O)Nc1nnc(OCC2CCOCC2)s1 [compound 1, 3-(2-methoxyphenyl)-N-(5-((tetrahydro-2H-pyran-4-yl)methoxy)-1,3,4-thiadiazol-2-yl)isonicotinamide] | 200 to 500 | 
COc1cccc(F)c1-c1cc(C)ncc1C(=O)Nc1nnc(OCc2ncc(C(C)(C)O)cc2F)s1 [Example 87, N-(5-((3-fluoro-5-(2-hydroxypropan-2-yl)pyridin-2-yl)methoxy)-1,3,4-thiadiazol-2-yl)-4-(2-fluoro-6-methoxyphenyl)-6-methylpyridine-3-carboxamide] | ≤ 200 | 
COc1cnc(Cl)cc1-c1cc(C)ncc1C(=O)Nc1nnc(OC[C@@H]2CC[C@@H](O)C2)s1 (single isomer, unassigned) [Example 209] | ≤ 200 | 
COc1cnc(Cl)cc1-c1cc(C)ncc1C(=O)Nc1nnc(OCC2COC(C)C2)s1 (stereo not shown) [Example 262, 2′-chloro-5′-methoxy-6-methyl-N-(5-((5-methyltetrahydrofuran-3-yl)methoxy)-1,3,4-thiadiazol-2-yl)-(4,4′-bipyridine)-3-carboxamide] | ≤ 200 | 
O=C(Nc1nnc(OCC2CCOCC2)s1)c1cccnc1N1CCOCC1 [Example 157, 2-morpholino-N-(5-((tetrahydro-2H-pyran-4-yl)methoxy)-1,3,4-thiadiazol-2-yl)nicotinamide] |  | > 10000
COc1cnc(C)c(F)c1-c1cc(C)ncc1C(=O)Nc1nnc(OCC23CCC(O)(CC2)CC3)s1 [Example 219, 3′-fluoro-N-(5-((4-hydroxybicyclo(2.2.2)octan-1-yl)methoxy)-1,3,4-thiadiazol-2-yl)-5′-methoxy-2′,6-dimethyl-(4,4′-bipyridine)-3-carboxamide] | ≤ 200 | 
COc1cccc(F)c1-c1cc(C)ncc1C(=O)Nc1nnc(OCc2ccc([S@@](C)(=N)=O)cn2)s1 [Example 150, 4-(2-fluoro-6-methoxyphenyl)-6-methyl-N-(5-((5-((S)—S-methylsulfonimidoyl)pyridin-2-yl)methoxy)-1,3,4-thiadiazol-2-yl)nicotinamide] | ≤ 200 | 
COc1cnc(C)cc1-c1cc(C)ncc1C(=O)Nc1nnc(OCc2ccc(OC(F)F)cn2)s1 [Example 82, N-(5-((5-(difluoromethoxy)pyridin-2-yl)methoxy)-1,3,4-thiadiazol-2-yl)-5′-methoxy-2′,6-dimethyl-(4,4′-bipyridine)-3-carboxamide] | ≤ 200 | 
COc1cnc(Cl)cc1-c1cc(C)ncc1C(=O)Nc1nnc(OCC2CCNC2)s1 (racemic) [Example 175, 2′-chloro-5′-methoxy-6-methyl-N-(5-(pyrrolidin-3-ylmethoxy)-1,3,4-thiadiazol-2-yl)-(4,4′-bipyridine)-3-carboxamide] | ≤ 200 | 
COc1cnc(Cl)c(F)c1-c1cc(C)ncc1C(=O)Nc1nnc(OCC2CCOC2)s1 (stereo in doubt) [Example 184, 2′-chloro-3′-fluoro-5′-methoxy-6-methyl-N-(5-(((S)-tetrahydrofuran-3-yl)methoxy)-1,3,4-thiadiazol-2-yl)-(4,4′-bipyridine)-3-carboxamide] | ≤ 200 | 
Cc1cc(-c2cc(Cl)ncc2OC(F)F)c(C(=O)Nc2nnc(OC[C@H]3CC[C@H](O)CC3)s2)cn1 [Example 243, 2′-chloro-5′-(difluoromethoxy)-N-(5-(((1r,4r)-4-hydroxycyclohexyl)methoxy)-1,3,4-thiadiazol-2-yl)-6-methyl-(4,4′-bipyridine)-3-carboxamide] | ≤ 200 | 
COc1cnc(Cl)cc1-c1cc(C)ncc1C(=O)Nc1nnc(OC[C@@H]2CCO[C@@H]2C)s1 (single isomer, unassigned) [Example 179] | ≤ 200 | 
COc1cnc(Cl)cc1-c1cc(C)ncc1C(=O)Nc1nnc(OC[C@@H]2COCCO2)s1 [Example 186, (S)—N-(5-((1,4-dioxan-2-yl)methoxy)-1,3,4-thiadiazol-2-yl)-2′-chloro-5′-methoxy-6-methyl-(4,4′-bipyridine)-3-carboxamide] | ≤ 200 | 
COc1ccc(Cl)cc1-c1cc(C)ncc1C(=O)Nc1nnc(OCc2ccc([S@@](C)(=N)=O)cn2)s1 [Example 148, (S)-4-(5-chloro-2-methoxyphenyl)-6-methyl-N-(5-((5-(S-methylsulfonimidoyl)pyridin-2-yl)methoxy)-1,3,4-thiadiazol-2-yl)nicotinamide] | ≤ 200 | 
COc1ccnc(COc2nnc(NC(=O)c3cnc(C)cc3-c3c(F)cccc3OC)s2)c1 [Example 67, 4-(2-fluoro-6-methoxyphenyl)-N-(5-((4-methoxypyridin-2-yl)methoxy)-1,3,4-thiadiazol-2-yl)-6-methylnicotinamide] | ≤ 200 | 
COc1ccccc1-c1cc(C)ncc1C(=O)Nc1nnc(OC[C@H](O)c2ccc(Cl)cn2)s1 [Example 27, (R)—N-(5-(2-(5-chloropyridin-2-yl)-2-hydroxyethoxy)-1,3,4-thiadiazol-2-yl)-4-(2-methoxyphenyl)-6-methylnicotinamide] | 200 to 500 | 
COc1c(F)cccc1-c1cc(C)ncc1C(=O)Nc1nnc(OCc2ccc(Cl)cn2)s1 [Example 16, N-(5-((5-chloropyridin-2-yl)methoxy)-1,3,4-thiadiazol-2-yl)-4-(3-fluoro-2-methoxyphenyl)-6-methylnicotinamide] | ≤ 200 | 
COc1c(C#N)cccc1-c1cc(C)ncc1C(=O)Nc1nnc(OCc2ccc(Cl)cn2)s1 [Example 21, N-(5-((5-chloropyridin-2-yl)methoxy)-1,3,4-thiadiazol-2-yl)-4-(3-cyano-2-methoxyphenyl)-6-methylnicotinamide] | ≤ 200 | 
